Converted amounts (≈) assume the structure as drawn.

The results in this text go back to patent publication US20240287124A1, “PRODRUGS OF 4'-SUBSTITUTED NUCLEOSIDE REVERSE TRANSCRIPTASE INHIBITORS” (Merck Sharp & Dohme LLC, priority 2023, published 2024).

Data set [1] is described as follows: Aqueous solubility in PBS, pH 7.4. The format is physicochemical. The settings on record: phosphate buffered saline, pH 7.4, aqueous buffer, thermodynamic from solid, pH 7.4 phosphate buffered saline, 24 hours, amorphous or crystalline material; read-out: Aqu. Solubility. How it is done:
Aqueous solubility of the compounds was determined by suspending excess solid (typically 0.3-0.5 mg) in PBS, pH 7.4, at a concentration of 0.5 mg/mL. The suspension was vortexed for 10-30 seconds to wet the material and stirred at 600 rpm for 24 hours. For analysis by UPLC, 150 μL aliquot sample was transferred into a […] PVDF spin filter and centrifuged at 14,000 rpm for 5 minutes. 100 μL of the filtrate was diluted with 100 μL 1:1 Acetonitrile (ACN):H2O. The resultant samples were analyzed using UPLC and quantified against a standard curve of the compound of interest dissolved in 1:1 ACN:H2O. The retains of the solids were checked by XRPD and PLM to determine if the phase of the material was crystalline or amorphous.

In data set [2] the test system is HIV-1 wild-type (R8) virus. Briefly: Viral KINetics in Green cells (VIKING) assay, HIV-1 replication in MT4-GFP reporter cells. The class given is cell-based. To be noted: Human immunodeficiency virus 1, 10% normal human serum, MT4-GFP cells, HIV-1 wild-type (R8); read-out: Viking (10% NHS), IC50. Summed up:
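Compounds in 3-fold, 10-point series (typical 4 μM-0.2 nM) in 10% normal human serum received MT4 GFP-reporter T cells pre-infected overnight with wild-type R8 virus (MOI ~0.01). Ratio of GFP-positive cells at 72 vs 48 h defined replication; IC50 from nonlinear 4-parameter dose-response fitting.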

Usually solubility stands for the dissolved amount per volume that the medium holds. In general, IC50 refers to the concentration at which inhibition is half-maximal. Consider `C#C[C@]1(COC(=O)Cc2ccc(Cl)cc2)O[C@@H](n2ccc3c(N)nc(Cl)nc32)C[C@@H]1O` [Example 33, ((2R,3S,5R)-5-(4-amino-2-chloro-7H-pyrrolo[2,3-d]pyrimidin-7-yl)-2-ethynyl-3-hydroxytetrahydrofuran-2-yl)methyl 2-(4-chlorophenyl)acetate], for which the solubility at 24 h in data set [1] amounted to 41 µg/mL (≈ 88.9 µM). For the same compound, the IC50 in data set [2] is 2.4 nM.

In the case of `C#C[C@]1(COC(=O)OC(CC)CC)O[C@@H](n2ccc3c(N)nc(Cl)nc32)C[C@@H]1O` [Example 86], the solubility at 24 h in data set [1] came out at 145 µg/mL (≈ 343 µM). Moreover, the IC50 in data set [2] stood at 13 nM.

Turning to `C#C[C@]1(CO)O[C@@H](n2ccc3c(NC(=O)CCCCCCCCCCC)nc(Cl)nc32)C[C@@H]1O` [Example 21, N-(2-chloro-7-((2R,4S,5R)-5-ethynyl-4-hydroxy-5-(hydroxymethyl)tetrahydrofuran-2-yl)-7H-pyrrolo[2,3-d]pyrimidin-4yl)dodecanamide], the solubility at 24 h in data set [1] is under 1 µg/mL. Moreover, the concentration for half-maximal inhibition (IC50) in data set [2] is 18 nM.

For `C#C[C@]1(COC(=O)OCCCCCCCCCC)O[C@@H](n2ccc3c(N)nc(Cl)nc32)C[C@@H]1O` [Example 18, ((2R,3S,5R)-5-(4-amino-2-chloro-7H-pyrrolo[2,3-d]pyrimidin-7-yl)-2-ethynyl-3-hydroxytetrahydrofuran-2-yl)methyl decyl carbonate], the solubility at 24 h in data set [1] is 0.45 µg/mL (≈ 0.913 µM). Moreover, the IC50 in data set [2] is 2.1 nM.

`C#C[C@]1(CO)O[C@@H](n2ccc3c(N)nc(Cl)nc32)C[C@@H]1OC(=O)CCCCCC` [Example 58, (2R,3S,5R)-5-(4-amino-2-chloro-7H-pyrrolo[2,3-d]pyrimidin-7-yl)-2-ethynyl-2-(hydroxymethyl)tetrahydrofuran-3-yl heptanoate]: the solubility at 24 h in data set [1] is under 1 µg/mL. Besides, the IC50 in data set [2] worked out at 1.9 nM.

In the case of `C#C[C@]1(CO)O[C@@H](n2ccc3c(N)nc(Cl)nc32)C[C@@H]1OC(=O)OCCCCC[C@@H]1SC[C@@H]2NC(=O)N[C@@H]21` [Example 160], the solubility at 24 h in data set [1] is under 1 µg/mL. In data set [2], the IC50 was 11 nM.

`C#C[C@]1(COC(=O)OCc2ccccc2)O[C@@H](n2ccc3c(N)nc(Cl)nc32)C[C@@H]1OC(=O)OCCCC` [Example 212]: in data set [1], the solubility at 24 h is under 1 µg/mL. Also, the IC50 in data set [2] turned out to be 4.8 nM.

Regarding `C#C[C@]1(COC(=O)OCCCCCCCC)O[C@@H](n2ccc3c(N)nc(Cl)nc32)C[C@@H]1O` [Example 39, ((2R,3S,5R)-5-(4-amino-2-chloro-7H-pyrrolo[2,3-d]pyrimidin-7-yl)-2-ethynyl-3-hydroxytetrahydrofuran-2-yl)methyl octyl carbonate], the solubility at 24 h in data set [1] is under 1 µg/mL. Also, in data set [2], the IC50 stood at 3 nM.

For `C#C[C@]1(COC(=O)CC2CCCCC2)O[C@@H](n2ccc3c(N)nc(Cl)nc32)C[C@@H]1O` [Example 182], in data set [1], the solubility at 24 h amounted to 124 µg/mL (≈ 286 µM). The IC50 in data set [2] came to 3.1 nM.

In the case of `C#C[C@]1(COC(=O)CC(C)(C)C)O[C@@H](n2ccc3c(N)nc(Cl)nc32)C[C@@H]1O` [Example 89], in data set [1], the solubility at 24 h turned out to be 365 µg/mL (≈ 897 µM). Also, in data set [2], the half-maximal inhibitory concentration (IC50) was found to be 29 nM.

In the case of `C#C[C@]1(CO)O[C@@H](n2ccc3c(N)nc(Cl)nc32)C[C@@H]1OC(=O)Cc1ccc(Cl)cc1` [Example 32, (2R,3S,5R)-5-(4-amino-2-chloro-7H-pyrrolo[2,3-d]pyrimidin-7-yl)-2-ethynyl-2-(hydroxymethyl)tetrahydrofuran-3-yl 2-(4-chlorophenyl)acetate], the solubility at 24 h in data set [1] worked out at 3.7 µg/mL (≈ 8.02 µM). In addition, in data set [2], the 50% inhibitory concentration (IC50) worked out at 5.1 nM.

With `C#C[C@]1(CO)O[C@@H](n2ccc3c(N)nc(Cl)nc32)C[C@@H]1OC(=O)Cc1ccc(Br)cc1` [Example 181], in data set [1], the solubility at 24 h was under 1 µg/mL. Besides, the IC50 in data set [2] was determined as 4 nM.

In the case of `C#C[C@]1(COC(=O)C2CCCCC2)O[C@@H](n2ccc3c(N)nc(Cl)nc32)C[C@@H]1O` [Example 88], the solubility at 24 h in data set [1] is 157 µg/mL (≈ 375 µM). Moreover, the IC50 in data set [2] is 4.4 nM.

Regarding `C#C[C@]1(CO)O[C@@H](n2ccc3c(N)nc(Cl)nc32)C[C@@H]1OC(=O)OCc1ccccc1` [Example 27, (2R,3S,5R)-5-(4-amino-2-chloro-7H-pyrrolo[2,3-d]pyrimidin-7-yl)-2-ethynyl-2-(hydroxymethyl)tetrahydrofuran-3-ylbenzyl carbonate], the solubility at 24 h in data set [1] was under 1 µg/mL. Besides, the IC50 in data set [2] was found to be 3.1 nM.

With `C#C[C@]1(CO)O[C@@H](n2ccc3c(NC(=O)CCc4ccccc4)nc(Cl)nc32)C[C@@H]1O` [Example 200], the solubility at 24 h in data set [1] is 307 µg/mL (≈ 696 µM). Also, in data set [2], the IC50 is 155 nM.

As for `C#C[C@]1(COC(=O)OCc2cc[nH]c(=O)c2)O[C@@H](n2ccc3c(N)nc(Cl)nc32)C[C@@H]1OC(=O)OCc1ccccc1` [Example 161], the solubility at 24 h in data set [1] was under 1 µg/mL. Also, in data set [2], the IC50 came out at 5.8 nM.

As to `C#C[C@]1(CO)O[C@@H](n2ccc3c(N)nc(Cl)nc32)C[C@@H]1OC(=O)OCCCCCCCCCC` [Example 10, (2R,3S,5R)-5-(4-amino-2-chloro-7H-pyrrolo[2,3-d]pyrimidin-7-yl)-2-ethynyl-2-(hydroxymethyl)tetrahydrofuran-3-yl decyl carbonate], in data set [1], the solubility at 24 h was under 1 µg/mL. Besides, the half-maximal inhibitory concentration (IC50) in data set [2] came to 9.9 nM.

For `C#C[C@]1(CO)O[C@@H](n2ccc3c(N)nc(Cl)nc32)C[C@@H]1OC(=O)CC` [Example 65, (2R,3S,5R)-5-(4-amino-2-chloro-7H-pyrrolo[2,3-d]pyrimidin-7-yl)-2-ethynyl-2-(hydroxymethyl)tetrahydrofuran-3-yl propionate], the solubility at 24 h in data set [1] is 224 µg/mL (≈ 614 µM). In addition, the IC50 in data set [2] was 26 nM.

On to `C#C[C@]1(CO)O[C@@H](n2ccc3c(NC(=O)c4ccccc4)nc(Cl)nc32)C[C@@H]1O` [Example 19, N-(2-chloro-7-((2R,4S,5R)-5-ethynyl-4-hydroxy-5-(hydroxymethyl)tetrahydrofuran-2-yl)-7H-pyrrolo[2,3-d]pyrimidin-4-yl)benzamide], for which the solubility at 24 h in data set [1] turned out to be 34 µg/mL (≈ 82.4 µM). The half-maximal inhibitory concentration (IC50) in data set [2] stood at 382 nM.

On to `C#C[C@]1(CO)O[C@@H](n2ccc3c(N)nc(Cl)nc32)C[C@@H]1OC(=O)CCc1ccccc1` [Example 81], for which the solubility at 24 h in data set [1] was 2 µg/mL (≈ 4.54 µM). The 50% inhibitory concentration (IC50) in data set [2] was determined as 3.3 nM.

As to `C#C[C@]1(CO)O[C@@H](n2ccc3c(N)nc(Cl)nc32)C[C@@H]1OC(=O)CCCC[C@@H]1SC[C@@H]2NC(=O)N[C@@H]21` [Example 184], in data set [1], the solubility at 24 h was found to be 161 µg/mL (≈ 301 µM). The IC50 in data set [2] was determined as 57 nM.

For the compound `C#C[C@]1(CO)O[C@@H](n2ccc3c(N)nc(Cl)nc32)C[C@@H]1OC(=O)CCCc1ccccc1` [Example 60, (2R,3S,5R)-5-(4-amino-2-chloro-7H-pyrrolo[2,3-d]pyrimidin-7-yl)-2-ethynyl-2-(hydroxymethyl)tetrahydrofuran-3-yl 4-phenylbutanoate], the solubility at 24 h in data set [1] was under 1 µg/mL. Also, in data set [2], the IC50 worked out at 3.5 nM.

In the case of `C#C[C@]1(COC(=O)CCCCC)O[C@@H](n2ccc3c(N)nc(Cl)nc32)C[C@@H]1OC(C)=O` [Example 185], the solubility at 24 h in data set [1] came to 4.2 µg/mL (≈ 9.36 µM). Besides, the IC50 in data set [2] is 17 nM.

Regarding `C#C[C@]1(CO)O[C@@H](n2ccc3c(N)nc(Cl)nc32)C[C@@H]1OC(=O)OCCCCCCC` [Example 153], the solubility at 24 h in data set [1] is under 1 µg/mL. Besides, in data set [2], the IC50 is 3.8 nM.

With `C#C[C@]1(COC(=O)CCCC)O[C@@H](n2ccc3c(N)nc(Cl)nc32)C[C@@H]1OC(=O)OC` [Example 189], the solubility at 24 h in data set [1] was found to be 23 µg/mL (≈ 51 µM). In addition, the IC50 in data set [2] stood at 19 nM.

Regarding `C#C[C@]1(COC(=O)OCCCCCCCCCCCC)O[C@@H](n2ccc3c(N)nc(Cl)nc32)C[C@@H]1O` [Example 117], the solubility at 24 h in data set [1] was under 1 µg/mL. In addition, in data set [2], the IC50 came to 4 nM.

On to `C#C[C@]1(COC(=O)OCCCCC[C@@H]2SC[C@@H]3NC(=O)N[C@@H]32)O[C@@H](n2ccc3c(N)nc(Cl)nc32)C[C@@H]1OC(=O)OCCCCC[C@@H]1SC[C@@H]2NC(=O)N[C@@H]21` [Example 207], for which, in data set [1], the solubility at 24 h was 1.2 µg/mL (≈ 1.46 µM). Besides, the IC50 in data set [2] worked out at 21 nM.

For the compound `C#C[C@]1(COC(=O)OCc2ccccc2)O[C@@H](n2ccc3c(N)nc(Cl)nc32)C[C@@H]1OC(=O)OCCCCCCCC` [Example 213], in data set [1], the solubility at 24 h was under 1 µg/mL. Besides, the IC50 in data set [2] is 7.9 nM.

With `C#C[C@]1(COC(=O)CCC23CC4CC(CC(C4)C2)C3)O[C@@H](n2ccc3c(N)nc(Cl)nc32)C[C@@H]1O` [Example 62, ((2R,3S,5R)-5-(4-amino-2-chloro-7H-pyrrolo[2,3-d]pyrimidin-7-yl)-2-ethynyl-3-hydroxytetrahydrofuran-2-yl)methyl 3-(adamantan-1-yl)propanoate], the solubility at 24 h in data set [1] was under 1 µg/mL. For the same compound, the IC50 in data set [2] stood at 3.9 nM.

Consider `C#C[C@]1(CO)O[C@@H](n2ccc3c(N)nc(Cl)nc32)C[C@@H]1OC(=O)CCCCC` [Example 59, (2R,3S,5R)-5-(4-amino-2-chloro-7H-pyrrolo[2,3-d]pyrimidin-7-yl)-2-ethynyl-2-(hydroxymethyl)tetrahydrofuran-3-yl hexanoate], for which the solubility at 24 h in data set [1] amounted to 16 µg/mL (≈ 39.3 µM). For the same compound, the IC50 in data set [2] was 2.8 nM.

On to `C#C[C@]1(CO)O[C@@H](n2ccc3c(N)nc(Cl)nc32)C[C@@H]1OC(=O)OCCCc1ccccc1` [Example 152], for which the solubility at 24 h in data set [1] was under 1 µg/mL. For the same compound, the IC50 in data set [2] came out at 6 nM.
